Test results from patent publication US9546164B2 (GENENTECH, INC., priority 2013, dated 2017).
pIC50: −log10 of the molar value. Where a name gives a salt, the structure may show the parent alone. Read-outs that look alike come from different tables or passages of the source.

Molecular target: hNav1.7 (Homo sapiens (Human), UniProt Q15858)
Assay: Tritiated sulfonamide competitive binding to membranes from cells expressing hNav1.7 and the β1 subunit;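 further: Filter-bound radioactivity counted by liquid scintillation, nonspecific binding defined with excess unlabelled ligand, IC50 fitted to percent inhibition of specific binding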
[1] = read-out: Ligand Binding Assay, 100 pM [3H]compound, membranes with hNav1.7 and β1 subunit, 18 h, room temperature

Sequence of hNav1.7 (Q15858 other isoform, or with tags, fused parts or gaps): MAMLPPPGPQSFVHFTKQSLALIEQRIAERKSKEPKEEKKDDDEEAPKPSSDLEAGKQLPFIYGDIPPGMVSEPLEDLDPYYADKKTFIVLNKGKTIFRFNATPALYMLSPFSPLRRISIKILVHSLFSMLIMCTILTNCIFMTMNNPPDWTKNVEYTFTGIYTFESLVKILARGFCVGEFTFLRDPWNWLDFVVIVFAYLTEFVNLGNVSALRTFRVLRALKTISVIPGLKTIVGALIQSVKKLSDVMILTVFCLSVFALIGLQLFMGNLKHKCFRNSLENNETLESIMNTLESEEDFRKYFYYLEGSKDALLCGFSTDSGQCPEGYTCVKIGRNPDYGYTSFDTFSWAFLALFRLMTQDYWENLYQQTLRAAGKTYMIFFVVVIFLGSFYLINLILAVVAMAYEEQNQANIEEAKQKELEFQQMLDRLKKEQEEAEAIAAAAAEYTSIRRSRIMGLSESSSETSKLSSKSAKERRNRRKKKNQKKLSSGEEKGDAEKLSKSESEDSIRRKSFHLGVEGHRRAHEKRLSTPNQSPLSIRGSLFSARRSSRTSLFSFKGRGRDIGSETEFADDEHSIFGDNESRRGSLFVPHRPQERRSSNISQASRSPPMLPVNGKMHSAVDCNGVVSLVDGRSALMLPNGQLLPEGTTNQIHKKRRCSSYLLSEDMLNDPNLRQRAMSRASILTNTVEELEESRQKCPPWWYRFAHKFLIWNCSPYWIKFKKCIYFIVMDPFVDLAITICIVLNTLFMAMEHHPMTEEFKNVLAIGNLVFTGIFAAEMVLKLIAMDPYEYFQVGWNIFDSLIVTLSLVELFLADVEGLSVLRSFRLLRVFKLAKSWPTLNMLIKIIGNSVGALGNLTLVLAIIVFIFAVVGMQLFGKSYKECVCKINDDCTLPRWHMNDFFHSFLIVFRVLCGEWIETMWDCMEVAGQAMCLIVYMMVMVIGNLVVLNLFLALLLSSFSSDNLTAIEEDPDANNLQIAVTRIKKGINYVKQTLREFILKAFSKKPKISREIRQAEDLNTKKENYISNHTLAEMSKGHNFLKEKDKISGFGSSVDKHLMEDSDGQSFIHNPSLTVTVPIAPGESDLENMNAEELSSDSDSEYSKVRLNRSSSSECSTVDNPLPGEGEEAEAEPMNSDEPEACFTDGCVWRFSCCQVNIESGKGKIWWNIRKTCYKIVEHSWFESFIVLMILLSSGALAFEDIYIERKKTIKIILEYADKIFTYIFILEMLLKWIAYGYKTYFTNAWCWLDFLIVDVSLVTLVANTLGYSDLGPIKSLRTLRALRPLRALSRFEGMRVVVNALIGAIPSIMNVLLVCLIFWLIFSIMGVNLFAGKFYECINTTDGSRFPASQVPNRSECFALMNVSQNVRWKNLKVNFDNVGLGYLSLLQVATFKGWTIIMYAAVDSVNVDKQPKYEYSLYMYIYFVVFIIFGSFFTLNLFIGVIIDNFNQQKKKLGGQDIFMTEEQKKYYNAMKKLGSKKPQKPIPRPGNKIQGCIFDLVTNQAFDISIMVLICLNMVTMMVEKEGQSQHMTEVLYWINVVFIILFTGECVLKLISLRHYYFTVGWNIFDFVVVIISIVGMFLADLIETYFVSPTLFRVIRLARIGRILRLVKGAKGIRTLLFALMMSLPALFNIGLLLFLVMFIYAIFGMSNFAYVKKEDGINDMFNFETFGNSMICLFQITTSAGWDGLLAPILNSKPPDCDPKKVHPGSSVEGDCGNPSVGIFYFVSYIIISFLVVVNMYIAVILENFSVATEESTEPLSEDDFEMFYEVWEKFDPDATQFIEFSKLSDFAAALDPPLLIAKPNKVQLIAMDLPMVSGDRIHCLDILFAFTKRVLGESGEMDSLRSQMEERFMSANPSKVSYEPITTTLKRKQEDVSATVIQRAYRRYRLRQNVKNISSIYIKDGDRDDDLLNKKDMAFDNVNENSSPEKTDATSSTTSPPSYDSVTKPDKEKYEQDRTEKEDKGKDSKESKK
Sequence of hNav1.7 (Q07699 19-218 partner): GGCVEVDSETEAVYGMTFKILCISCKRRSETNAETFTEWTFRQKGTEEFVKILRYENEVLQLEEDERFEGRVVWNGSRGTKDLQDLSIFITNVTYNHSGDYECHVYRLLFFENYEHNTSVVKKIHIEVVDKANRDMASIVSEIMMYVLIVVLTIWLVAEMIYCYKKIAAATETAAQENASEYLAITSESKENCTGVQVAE

SMILES	pIC50 [1]	pIC50
O=C(NS(=O)(=O)C1CC1)c1cc(C2CC2)c(OCC2CCN(S(=O)(=O)c3ccc(Br)c(Cl)c3)CC2)cc1F [Example 391, 4-((1-((4-bromo-3-chlorophenyl)sulfonyl)piperidin-4-yl)methoxy)-5-cyclopropyl-N-(cyclopropylsulfonyl)-2-fluorobenzamide]	8.00	
CC(c1cc(Cl)cc(Cl)c1F)N1CCC(COc2cc(F)c(C(=O)NS(C)(=O)=O)cc2C2CC2)CC1 (stereo in doubt) [Example 236, (R)-5-cyclopropyl-4-((1-(1-(3,5-dichloro-2-fluorophenyl)ethyl)piperidin-4-yl)methoxy)-2-fluoro-N-(methylsulfonyl)benzamide]	8.80	
O=C(NS(=O)(=O)N1CCC1)c1cc(C2CC2)c(O[C@H]2CCN(Cc3ccccc3)C2)cc1F [Example 45, (S)—N-(azetidin-1-ylsulfonyl)-4-((1-benzylyprrolidin-3-yl)oxy)-5-cyclopropyl-2-fluorobenzamide]	5.34	
O=C(NS(=O)(=O)C1CC1)c1cc(C2CC2)c(CN2CCC(Oc3cccc(C(F)(F)F)c3)CC2)cc1F [Example 502, trifluoroacetic acid salt]	8.17	
C[C@@H](c1ccc(Cl)cc1Cl)N1CCC(C)(COc2cc(F)c(C(=O)NS(C)(=O)=O)cc2C2CC2)CC1 [Example 280, (S)-5-cyclopropyl-4-((1-(1-(2,4-dichlorophenyl)ethyl)-4-methylpiperidin-4-yl)methoxy)-2-fluoro-N-(methylsulfonyl)benzamide]	8.09	
COC[C@](C)(c1cc(Cl)cc(Cl)c1)N1CCC(COc2cc(F)c(C(=O)NS(C)(=O)=O)cc2C2CC2)CC1 (single isomer, unassigned) [Example 202]	8.80	
CCS(=O)(=O)NC(=O)c1cc(C2CC2)c(OCC2CCN([C@@H](c3cc(Cl)cc(Cl)c3)C(F)F)CC2)cc1F [Example 226, (S)-5-cyclopropyl-4-((1-(1-(3,5-dichlorophenyl)-2,2-difluoroethyl)piperidin-4-yl)methoxy)-N-(ethylsulfonyl)-2-fluorobenzamide]	7.92	
O=C(NS(=O)(=O)C1CC1)c1cc(C2CC2)c(OCC2CCN(S(=O)(=O)c3ccc(F)c(Cl)c3)CC2)cc1F [Example 383, 4-((1-((3-chloro-4-fluorophenyl)sulfonyl)piperidin-4-yl)methoxy)-5-cyclopropyl-N-(cyclopropylsulfonyl)-2-fluorobenzamide]	7.83	
CS(=O)(=O)NC(=O)c1cc(C2CC2)c(O[C@@H]2CCCN(Cc3ccccc3Cl)C2)cc1F [Example 24, (R)-4-((1-(2-chlorobenzyl)piperidin-3-yl)oxy)-5-cyclopropyl-2-fluoro-N-(methylsulfonyl)benzamide]		8.22
CCC(c1cc(Cl)cc(Cl)c1)N1CC(COc2cc(F)c(C(=O)NS(C)(=O)=O)cc2C2CC2)C1 (centres unmarked) [Example 158, 5-Cyclopropyl-4-((1-(1-(3,5-dichlorophenyl)propyl)azetidin-3-yl)methoxy)-2-fluoro-N-(methylsulfonyl)benzamide]	7.91	
COC[C@@H](c1ccccc1)N1CCC(COc2cc(F)c(C(=O)NS(C)(=O)=O)cc2C2CC2)CC1 [Example 222, (R)-5-cyclopropyl-2-fluoro-4-((1-(2-methoxy-1-phenylethyl)piperidin-4-yl)methoxy)-N-(methylsulfonyl)benzamide]	6.80	
CS(=O)(=O)NC(=O)c1cc(C2CC2)c(O[C@@H]2CCCN(Cc3cccc(C(F)(F)F)c3)C2)cc1F [Example 319, (R)-5-cyclopropyl-2-fluoro-N-(methylsulfonyl)-4-((1-(3-(trifluoromethyl)benzyl)piperidin-3-yl)oxy)benzamide]	8.27	
CS(=O)(=O)NC(=O)c1cc(C2CC2)c(O[C@@H]2CCCN(Cc3cc(Cl)cc(Cl)c3)C2)cc1F [Example 440]	9.52	

Second part, the compound after the results:

pIC50 [1]	pIC50	SMILES
6.93		CC(C)c1nc(CN2CCC(COc3cc(F)c(C(=O)NS(=O)(=O)C4CC4)cc3C3CC3)CC2)cs1 [Example 355, 5-cyclopropyl-N-(cyclopropylsulfonyl)-2-fluoro-4-((1-((2-isopropylthiazol-4-yl)methyl)piperidin-4-yl)methoxy)benzamide trifluoroacetic acid salt]
7.82		C[C@H](c1cc(Cl)cc(Cl)c1)N1CCC(COc2cc(F)c(C(=O)NS(=O)(=O)C3CC3)cc2Cl)CC1 [Example 405, (R)-5-chloro-N-(cyclopropylsulfonyl)-4-((1-(1-(3,5-dichlorophenyl)ethyl)piperidin-4-yl)methoxy)-2-fluorobenzamide, trifluoroacetic acid salt]
8.48		CCS(=O)(=O)NC(=O)c1cc(C2CC2)c(OCC2(C)CN(c3ncc(C(F)(F)F)cc3Cl)C2)cc1F [Example 482, 4-((1-(3-chloro-5-(trifluoromethyl)pyridin-2-yl)-3-methylazetidin-3-yl)methoxy)-5-cyclopropyl-N-(ethylsulfonyl)-2-fluorobenzamide]
7.87		CC1(COc2cc(F)c(C(=O)NS(=O)(=O)C3CC3)cc2C2CC2)CN(c2cc(Cl)ncc2C(F)(F)F)C1 [Example 487, 4-((1-(2-chloro-5-(trifluoromethyl)pyridin-4-yl)-3-methylazetidin-3-yl)methoxy)-5-cyclopropyl-N-(cyclopropylsulfonyl)-2-fluorobenzamide, trifluoroacetic acid salt]
	8.44	O=C(NS(=O)(=O)N1CCC1)c1cc(C2CC2)c(O[C@@H]2CCCN(Cc3ccc(F)cc3C(F)(F)F)C2)cc1F [Example 36, (R)—N-(azetidin-1-ylsulfonyl)-5-cyclopropyl-2-fluoro-4-((1-(4-fluoro-2-(trifluoromethyl)benzyl)piperidin-3-yl)oxy)benzamide]
	8.38	C[C@H](c1cc(Cl)cc(Cl)c1)N1C[C@@H]2C[C@H]1CN2Cc1cc(F)c(C(=O)NS(=O)(=O)C2CC2)cc1C1CC1 (single isomer, unassigned) [Example 563, trifluoroacetic acid salt]
7.71		O=C(NS(=O)(=O)C1CC1)c1cc(C2CC2)c(OCC2CCN(S(=O)(=O)c3ccc(C(F)(F)F)cc3)CC2)cc1F [Example 373, 5-cyclopropyl-N-(cyclopropylsulfonyl)-2-fluoro-4-((1-((4-(trifluoromethyl)phenyl)sulfonyl)piperidin-4-yl)methoxy)benzamide]
8.43		C[C@H](c1cc(Cl)cc(Cl)c1)N1CCC(COc2cc(F)c(C(=O)NS(=O)(=O)N3CCC3)cc2C2CC2)CC1 (single isomer, unassigned) [Example 271]
7.24		COCCS(=O)(=O)NC(=O)c1cc(C2CC2)c(OCC2CN(C(c3ccccc3)c3ccccc3)C2)cc1F [Example 61, 4-((1-benzhydrylazetidin-3-yl)methoxy)-5-cyclopropyl-2-fluoro-N-((2-methoxyethyl)sulfonyl)benzamide]
8.24		CC(C)Nc1ccc(F)cc1CN1CCC(COc2cc(F)c(C(=O)NS(=O)(=O)C3CC3)cc2C2CC2)CC1 [Example 356, 5-cyclopropyl-N-(cyclopropylsulfonyl)-2-fluoro-4-((1-(5-fluoro-2-(isopropylamino)benzyl)piperidin-4-yl)methoxy)benzamide, trifluoroacetic acid salt]
7.84		O=C(NS(=O)(=O)C1CC1)c1cc(C2CC2)c(OCC2CCN(S(=O)(=O)c3cccc(C(F)(F)F)c3)CC2)cc1F [Example 375, 5-cyclopropyl-N-(cyclopropylsulfonyl)-2-fluoro-4-((1-((3-(trifluoromethyl)phenyl)sulfonyl)piperidin-4-yl)methoxy)benzamide]
8.89		CS(=O)(=O)NC(=O)c1cc(C2CC2)c(O[C@@H]2CCCN(Cc3cc(Cl)cc(OC(F)(F)F)c3)C2)cc1F [Example 422, (R)-4-((1-(3-chloro-5-(trifluoromethoxy)benzyl)piperidin-3-yl)oxy)-5-cyclopropyl-2-fluoro-N-(methylsulfonyl)benzamide, trifluoroacetic acid salt]
7.84		CS(=O)(=O)NC(=O)c1cc(C2CC2)c(OC[C@H]2CCCN(Cc3ccc(F)cc3Cl)C2)cc1F [Example 335, (S)-4-((1-(2-chloro-4-fluorobenzyl)piperidin-3-yl)methoxy)-5-cyclopropyl-2-fluoro-N-(methylsulfonyl)benzamide]
8.52		CS(=O)(=O)NC(=O)c1cc(C2CC2)c(OCC2CCN(Cc3cc(Cl)cc(Cl)c3F)CC2)cc1F [Example 242, 5-Cyclopropyl-4-((1-(3,5-dichloro-2-fluorobenzyl)piperidin-4-yl)methoxy)-2-fluoro-N-(methylsulfonyl)benzamide]
8.68		CC1(COc2cc(F)c(C(=O)NS(C)(=O)=O)cc2C2CC2)CCN(c2cc(C(F)(F)F)c(Cl)cn2)CC1 [Example 556, 4-((1-(5-chloro-4-(trifluoromethyl)pyridin-2-yl)-4-methylpiperidin-4-yl)methoxy)-5-cyclopropyl-2-fluoro-N-(methylsulfonyl)benzamide]
7.28		Cc1cc(F)ccc1S(=O)(=O)N1CCC(COc2cc(F)c(C(=O)NS(C)(=O)=O)cc2C2CC2)CC1 [Example 386, 5-cyclopropyl-2-fluoro-4-((1-((4-fluoro-2-methylphenyl)sulfonyl)piperidin-4-yl)methoxy)-N-(methylsulfonyl)benzamide]
8.11		CCS(=O)(=O)NC(=O)c1cc(C2CC2)c(OC[C@@H]2CC[C@@H](C)N([C@H](C)c3cc(Cl)cc(Cl)c3)C2)cc1F [Example 345, 5-cyclopropyl-4-(((3R,6R)-1-((R)-1-(3,5-dichlorophenyl)ethyl)-6-methylpiperidin-3-yl)methoxy)-N-(ethylsulfonyl-2-fluorobenzamide, trifluoroacetic acid salt]
7.63		CCOc1ccc(CN2CCC[C@@H](Oc3cc(F)c(C(=O)NS(C)(=O)=O)cc3C3CC3)C2)c(OCC)c1 [Example 428, (R)-5-cyclopropyl-4-((1-(2,4-diethoxybenzyl)piperidin-3-yl)oxy)-2-fluoro-N-(methylsulfonyl)benzamide, trifluoroacetic acid salt]
7.70		CS(=O)(=O)NC(=O)c1cc(C2CC2)c(OCC2CCN(C(=O)c3cc(Cl)cc(Cl)c3)CC2)cc1F [Example 253, 5-Cyclopropyl-4-((1-(3,5-dichlorobenzoyl)piperidin-4-yl)methoxy)-2-fluoro-N-(methylsulfonyl)benzamide]
